From the NIST ThermoML archive (doi:10.1016/j.jct.2009.07.002)

Experiment: isobaric coefficient of expansion
Settings: Liquid, DSC with Pressure Shift

CCCO [propan-1-ol]
isobaric coefficient of expansion
Settings	278.15 K	288.15 K	298.15 K	308.15 K	318.15 K	328.15 K	338.15 K	348.15 K
5000 kPa	0.000927 1/K	0.000947 1/K	0.000967 1/K	0.001 1/K	0.00104 1/K	0.00107 1/K	0.00111 1/K	0.00116 1/K
10000 kPa	0.000901 1/K	0.000923 1/K	0.000943 1/K	0.000975 1/K	0.001 1/K	0.00104 1/K	0.00108 1/K	0.00112 1/K
15000 kPa	0.000883 1/K	0.000902 1/K	0.00092 1/K	0.000948 1/K	0.000976 1/K	0.00101 1/K	0.00104 1/K	0.00108 1/K
20000 kPa	0.000868 1/K	0.000884 1/K	0.000899 1/K	0.000925 1/K	0.000947 1/K	0.000975 1/K	0.00101 1/K	0.00105 1/K
25000 kPa	0.00085 1/K	0.000867 1/K	0.000877 1/K	0.0009 1/K	0.000922 1/K	0.00095 1/K	0.000977 1/K	0.00101 1/K
30000 kPa	0.000834 1/K	0.000848 1/K	0.000858 1/K	0.000882 1/K	0.000899 1/K	0.000923 1/K	0.000951 1/K	0.000984 1/K
35000 kPa	0.000818 1/K	0.00083 1/K	0.000843 1/K	0.000859 1/K	0.00088 1/K	0.000901 1/K	0.000926 1/K	0.000958 1/K
40000 kPa	0.000803 1/K	0.000816 1/K	0.000822 1/K	0.000844 1/K	0.000854 1/K	0.000878 1/K	0.000899 1/K	0.000927 1/K
45000 kPa	0.00079 1/K	0.000801 1/K	0.000811 1/K	0.000824 1/K	0.000839 1/K	0.000858 1/K	0.000881 1/K	0.000906 1/K
50000 kPa	0.000777 1/K	0.000786 1/K	0.000795 1/K	0.000809 1/K	0.000822 1/K	0.000838 1/K	0.000862 1/K	0.000885 1/K
55000 kPa	0.000767 1/K	0.000775 1/K	0.000781 1/K	0.000794 1/K	0.000806 1/K	0.000821 1/K	0.000837 1/K	0.000861 1/K

CCCCCCCCCO [nonan-1-ol]
isobaric coefficient of expansion
Settings	278.15 K	288.15 K	298.15 K	308.15 K	318.15 K	328.15 K	338.15 K	348.15 K
5000 kPa	0.000819 1/K	0.000805 1/K	0.000816 1/K	0.000829 1/K	0.000846 1/K	0.000863 1/K	0.000886 1/K	0.000912 1/K
10000 kPa	0.000795 1/K	0.000791 1/K	0.000798 1/K	0.00081 1/K	0.000826 1/K	0.00084 1/K	0.000858 1/K	0.000879 1/K
15000 kPa	0.000786 1/K	0.000772 1/K	0.000782 1/K	0.000792 1/K	0.000801 1/K	0.000815 1/K	0.000831 1/K	0.000853 1/K
20000 kPa	0.000759 1/K	0.000759 1/K	0.000762 1/K	0.000773 1/K	0.000785 1/K	0.000792 1/K	0.000807 1/K	0.000827 1/K
25000 kPa	0.000741 1/K	0.000743 1/K	0.000745 1/K	0.000753 1/K	0.000764 1/K	0.000775 1/K	0.000789 1/K	0.000806 1/K
30000 kPa	0.000733 1/K	0.000728 1/K	0.000732 1/K	0.000736 1/K	0.000748 1/K	0.000759 1/K	0.000773 1/K	0.000787 1/K
35000 kPa	0.000719 1/K	0.000716 1/K	0.00072 1/K	0.000723 1/K	0.000732 1/K	0.000743 1/K	0.000754 1/K	0.000768 1/K
40000 kPa	0.000704 1/K	0.000705 1/K	0.000705 1/K	0.00071 1/K	0.000715 1/K	0.000728 1/K	0.000736 1/K	0.000749 1/K
45000 kPa	0.000693 1/K	0.000698 1/K	0.000693 1/K	0.000695 1/K	0.000702 1/K	0.000715 1/K	0.000722 1/K	0.000734 1/K
50000 kPa	0.000685 1/K	0.000691 1/K	0.000682 1/K	0.000684 1/K	0.00069 1/K	0.0007 1/K	0.000708 1/K	0.000719 1/K
55000 kPa	0.000672 1/K	0.000677 1/K	0.000672 1/K	0.000673 1/K	0.000678 1/K	0.000687 1/K	0.000695 1/K	0.000705 1/K
